From ChEMBL document CHEMBL2434921, “New synthetic aliphatic sulfonamido-quaternary ammonium salts as anticancer chemotherapeutic agents” (2013)
Active and inactive are the calls of the source. The rule behind the calls is not given here.

Columns and labels:
[1] = system: NCI-H23; assay: Growth inhibition of human NCI-H23 cells after 48 hrs by SRB assay; assay type: functional; settings: NCI-H23, 48 h
[2] = system: HCT-15; assay: Growth inhibition of human HCT15 cells after 48 hrs by SRB assay; assay type: functional; settings: HCT-15, 48 h
[3] = target: Rho-related GTP-binding protein RhoB (Homo sapiens) (UniProt P62745); assay: Transactivation of RhoB (unknown origin) transfected in human HeLa cells at 5 uM measured over 10 secs by dual luciferase reporter gene assay; assay type: cell-based
[4] = system: NUGC-3; assay: Growth inhibition of human NUGC3 cells after 48 hrs by SRB assay; assay type: functional; settings: NUGC-3, 48 h
[5] = system: ACHN; assay: Growth inhibition of human ACHN cells after 48 hrs by SRB assay; assay type: functional
[6] = system: MDA-MB-231; assay: Growth inhibition of human MDA-MB-231 cells after 48 hrs by SRB assay; assay type: functional; settings: MDA-MB-231, 48 h
[7] = system: PC-3; assay: Growth inhibition of human PC3 cells after 48 hrs by SRB assay; assay type: functional; settings: PC-3, 48 h
[8] = system: PC-3; assay: Growth of human PC3 cells at 10 uM after 48 hrs by SRB assay; settings: PC-3, 48 h
[9] = system: NUGC-3; assay: Growth of human NUGC3 cells at 1 uM after 48 hrs by SRB assay; settings: NUGC-3, 48 h
[10] = system: ACHN; assay: Growth of human ACHN cells at 10 uM after 48 hrs by SRB assay
[11] = system: HCT-15; assay: Growth of human HCT15 cells at 3 uM after 48 hrs by SRB assay; settings: HCT-15, 48 h
[12] = system: ACHN; assay: Growth of human ACHN cells at 0.1 uM after 48 hrs by SRB assay
[13] = system: ACHN; assay: Growth of human ACHN cells at 0.3 uM after 48 hrs by SRB assay
[14] = system: NUGC-3; assay: Growth of human NUGC3 cells at 0.1 uM after 48 hrs by SRB assay; settings: NUGC-3, 48 h
[15] = system: NUGC-3; assay: Growth of human NUGC3 cells at 0.3 uM after 48 hrs by SRB assay; settings: NUGC-3, 48 h
[16] = system: HCT-15; assay: Growth of human HCT15 cells at 0.3 uM after 48 hrs by SRB assay; settings: HCT-15, 48 h
[17] = system: NCI-H23; assay: Growth of human NCI-H23 cells at 10 uM after 48 hrs by SRB assay; settings: NCI-H23, 48 h
[18] = system: NCI-H23; assay: Growth of human NCI-H23 cells at 0.3 uM after 48 hrs by SRB assay; settings: NCI-H23, 48 h
[19] = system: MDA-MB-231; assay: Growth of human MDA-MB-231 cells at 1 uM after 48 hrs by SRB assay; settings: MDA-MB-231, 48 h
[20] = system: MDA-MB-231; assay: Growth of human MDA-MB-231 cells at 10 uM after 48 hrs by SRB assay; settings: MDA-MB-231, 48 h
[21] = system: MDA-MB-231; assay: Growth of human MDA-MB-231 cells at 0.1 uM after 48 hrs by SRB assay; settings: MDA-MB-231, 48 h
[22] = system: MDA-MB-231; assay: Growth of human MDA-MB-231 cells at 3 uM after 48 hrs by SRB assay; values are per cent of control; settings: MDA-MB-231, 48 h
[23] = system: PC-3; assay: Growth inhibition of human PC3 cells at 1 uM after 48 hrs by SRB assay; values are per cent of control; settings: PC-3, 48 h
[24] = system: PC-3; assay: Growth inhibition of human PC3 cells at 3 uM after 48 hrs by SRB assay; values are per cent of control; settings: PC-3, 48 h
[25] = system: ACHN; assay: Growth inhibition of human ACHN cells at 3 uM after 48 hrs by SRB assay; values are per cent of control
[26] = system: ACHN; assay: Growth inhibition of human ACHN cells at 1 uM after 48 hrs by SRB assay; values are per cent of control
[27] = system: NUGC-3; assay: Growth inhibition of human NUGC3 cells at 3 uM after 48 hrs by SRB assay; values are per cent of control; settings: NUGC-3, 48 h
[28] = system: PC-3; assay: Growth inhibition of human PC3 cells at 0.1 uM after 48 hrs by SRB assay; values are per cent of control; settings: PC-3, 48 h
[29] = system: PC-3; assay: Growth inhibition of human PC3 cells at 0.3 uM after 48 hrs by SRB assay; values are per cent of control; settings: PC-3, 48 h
[30] = system: HCT-15; assay: Growth inhibition of human HCT15 cells at 1 uM after 48 hrs by SRB assay; values are per cent of control; settings: HCT-15, 48 h
[31] = system: NUGC-3; assay: Growth inhibition of human NUGC3 cells at 10 uM after 48 hrs by SRB assay; values are per cent of control; settings: NUGC-3, 48 h
[32] = system: HCT-15; assay: Growth inhibition of human HCT15 cells at 10 uM after 48 hrs by SRB assay; values are per cent of control; settings: HCT-15, 48 h
[33] = system: NCI-H23; assay: Growth inhibition of human NCI-H23 cells at 1 uM after 48 hrs by SRB assay; values are per cent of control; settings: NCI-H23, 48 h
[34] = system: NCI-H23; assay: Growth inhibition of human NCI-H23 cells at 3 uM after 48 hrs by SRB assay; values are per cent of control; settings: NCI-H23, 48 h
[35] = system: HCT-15; assay: Growth inhibition of human HCT15 cells at 0.1 uM after 48 hrs by SRB assay; values are per cent of control; settings: HCT-15, 48 h
[36] = system: NCI-H23; assay: Growth inhibition of human NCI-H23 cells at 0.1 uM after 48 hrs by SRB assay; values are per cent of control; settings: NCI-H23, 48 h
[37] = system: MDA-MB-231; assay: Growth inhibition of human MDA-MB-231 cells at 0.3 uM after 48 hrs by SRB assay; values are per cent of control; settings: MDA-MB-231, 48 h

Chain of Rho-related GTP-binding protein RhoB (Homo sapiens) (P62745 whole entry): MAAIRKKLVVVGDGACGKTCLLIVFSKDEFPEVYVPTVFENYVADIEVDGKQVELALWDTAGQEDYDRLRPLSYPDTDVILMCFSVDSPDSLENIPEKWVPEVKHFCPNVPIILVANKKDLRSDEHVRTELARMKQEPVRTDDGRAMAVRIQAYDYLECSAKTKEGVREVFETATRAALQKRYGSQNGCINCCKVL

For `CCCCCCCCCCCCCCCCS(=O)(=O)N(C)CC[N+](CC)(CC)CC`, the GI50 [1] was 550 nM, the GI50 [2] was 1610 nM and the Activity [3] was “Active”. The GI50 [4] was 220 nM, the GI50 [5] was 1310 nM and the GI50 [6] was 1170 nM. For the same compound, the GI50 [7] was 520 nM, the growth, % of control at 10 µM [8] was -21.4% and the growth, % of control at 1 µM [9] was 19.6%. For the same compound, the growth, % of control at 10 µM [10] was 15.4%, the growth, % of control at 3 µM [11] was 50.9% and the growth, % of control at 0.1 µM [12] was 92.6%. The growth, % of control at 0.3 µM [13] was 92.8%, the growth, % of control at 0.1 µM [14] was 69.8% and the growth, % of control at 0.3 µM [15] was 70.3%. It also gave a growth, % of control at 0.3 µM [16] of 87.6%, a growth, % of control at 10 µM [17] of 3.4% and a growth, % of control at 0.3 µM [18] of 93.7%. It also gave a growth, % of control at 1 µM [19] of 65.5%, a growth, % of control at 10 µM [20] of 20% and a growth, % of control at 0.1 µM [21] of 87.3%. For the same compound, the growth, % of control at 3 µM [22] was 37.4%, the growth, % of control at 1 µM [23] was 47.5% and the growth, % of control at 3 µM [24] was 11.3%. The growth, % of control at 3 µM [25] was 43.4%, the growth, % of control at 1 µM [26] was 70.4% and the growth, % of control at 3 µM [27] was 5.8%. It also gave a growth, % of control at 0.1 µM [28] of 95.5%, a growth, % of control at 0.3 µM [29] of 84.7% and a growth, % of control at 1 µM [30] of 73.5%. For the same compound, the growth, % of control at 10 µM [31] was -4%, the growth, % of control at 10 µM [32] was 21.8% and the growth, % of control at 1 µM [33] was 44.3%. For the same compound, the growth, % of control at 3 µM [34] was 15.5%, the growth, % of control at 0.1 µM [35] was 83% and the growth, % of control at 0.1 µM [36] was 94%. The growth, % of control at 0.3 µM [37] was 96.5%.
